According to patent US20190358181A1, “METHODS FOR AUTISM SPECTRUM DISORDER PHARMACOTHERAPY” (priority 2017, published 2019):

System: males with ASD
Test: Repetitive Behavior Questionnaire (RBQ), SAT-1 trial
Type: in vivo, human
Protocol: Two observational examinations were performed by a clinician at 3 time points: baseline (56±8 days; mean±SEM; before the infusion), 2-days post-infusion, and 6-weeks post-infusion. The two examiner-based metrics were the Autism Diagnostic Observation Schedule, 2nd edition (ADOS-2) with video and audio files recorded on 3 cameras, and the Expressive One Word Picture Vocabulary Testing (EOWPVT). Both of these observational metrics were administered by a trained and certified examiner using approved test materials. Three standardized questionnaires were completed by parents at 3 time points: baseline, 7-days post-infusion, and 6-weeks post-infusion. The three standardized questionnaires completed by parents were the 58-question Aberrant Behavior Checklist (ABC), the 75-item Autism Treatment Evaluation Checklist (ATEC), and the 33-item repetitive behavior questionnaire (RBQ). Parents were asked to complete these three instruments with reference to how their child behaved in the previous 7 days. […]
Behavioral and neurological effects of treatment were assessed primarily by the examiner-based ADOS-2 protocol scores and standardized vocabulary testing (Expressive One Word Picture Vocabulary Test, EOWPVT), with secondary evaluation via parent-based assessments (Aberrant Behavior Checklist (ABC) scores, Autism Treatment Evaluation Checklist (ATEC) scores, Clinical Global Impression of Improvement (CGI) scores, and Repetitive Behavior Questionnaire (RBQ) scores). […] Examiner-based outcomes (ADOS and EOWPVT) were assessed at 2-days and 6-weeks after the infusion. Parent-based outcomes (ABC, ATEC, CGI, and RBQ) were assessed at 7-days and 6-weeks after the infusion. […]
Each child was used as their own control to examine before and after treatment effects from Example 1 in a paired t-test design for the analysis of the ADOS, EOWPVT, ABC, ATEC, RBQ (FIGS. 4-11 show individual analyses), and blood and urine safety data (FIGS. 2 and 3 show individual analyses). […] Categorical data, such as the presence or absence of adverse events or historical symptoms was analyzed by Fisher's exact test. […]

[1] = RBQ Total, 45 days after treatment

Cc1ccc(C(=O)Nc2ccc(S(=O)(=O)O)c3cc(S(=O)(=O)O)cc(S(=O)(=O)O)c23)cc1NC(=O)c1cccc(NC(=O)Nc2cccc(C(=O)Nc3cc(C(=O)Nc4ccc(S(=O)(=O)O)c5cc(S(=O)(=O)O)cc(S(=O)(=O)O)c45)ccc3C)c2)c1 [Suramin, suramin]
Repetitive Behavior Questionnaire (RBQ) scores (6-weeks): did not capture a change
Difference from baseline (mean ± sd) [1]: −3.2 ± 5.8
d (Cohen's d) [1]: 0.55
